Data set [1] has as its system cultured ocular epithelial cells. To be noted: in vitro; cited from earlier work.
A short description of data set [2]: Stability of ocular histatin formulation determined by mass spectroscopy. Particulars: 100 μg/mL in gel tears lubricating eye drop with 0.25% PEG in aqueous buffered borate salt solution. The class given is physicochemical. The protocol:
In some embodiments, the ocular histatin formulation is stable both at room temperature (25° C.) and at 45° C. for at least 90 days.

The text below walks through data of US20170239330A1, “FORMULATIONS FOR HISTATIN THERAPEUTICS” (RAPID PATHOGEN SCREENING, INC., priority 2014, published 2017).

Turning to Benzalkonium chloride, the “Cytotoxicity to cultured ocular epithelial cells” value in data set [1] is “significant cytotoxicity”.

For the substance “cyclo(DNLPETGGDSHEKRHHGYRRKFHEKHHSHREFPFYGDYGSNYLY) [cyclized histatin 1]”, the “Time formulation found stable, by mass spectroscopy” value is “at least 505 days” in data set [2] (25° C.) and “at least 90 days” in data set [2] (45° C.).
